Assay results: PubChem BioAssay (NCI)
“And” between values parts separate entries of the source, which are not always exact repeats. Equal values may be shown once.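 Step 1: Grow cells in 96-well plates. Step 2: Expose to compound for 48 hours at 5 concentrations. Step 3: Interpolate endpoints linearly; if unreached, use highest concentration. GI50 marks 50% less growth. TGI is the concentration that stops growth completely.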

What was measured:
Test in all cases: growth of human tumour cells (NCI), 48 h
HCT-116 colon = system: HCT-116 colon
SK-MEL-2 melanoma = system: SK-MEL-2 melanoma
SK-MEL-28 melanoma = system: SK-MEL-28 melanoma
HCT-15 colon = system: HCT-15 colon
SK-MEL-5 melanoma = system: SK-MEL-5 melanoma
COLO 205 colon = system: COLO 205 colon
MCF7 breast = system: MCF7 breast
CCRF-CEM leukemia = system: CCRF-CEM leukemia
HS 578T breast = system: HS 578T breast
SNB-75 CNS = system: SNB-75 CNS
RPMI-8226 leukemia = system: RPMI-8226 leukemia
RXF 393 renal = system: RXF 393 renal
MDA-MB-231 breast = system: MDA-MB-231 breast
BT-549 breast = system: BT-549 breast
LOX IMVI melanoma = system: LOX IMVI melanoma
UACC-257 melanoma = system: UACC-257 melanoma
PC-3 prostate = system: PC-3 prostate
NCI-H460 lung = system: NCI-H460 lung
T-47D breast = system: T-47D breast
HOP-92 NSCLC = system: HOP-92 NSCLC
SNB-19 CNS = system: SNB-19 CNS
EKVX NSCLC = system: EKVX NSCLC
HCC-2998 colon = system: HCC-2998 colon
KM12 colon = system: KM12 colon
UO-31 renal = system: UO-31 renal
OVCAR-8 ovarian = system: OVCAR-8 ovarian
HOP-62 NSCLC = system: HOP-62 NSCLC
A498 renal = system: A498 renal
SF-539 CNS = system: SF-539 CNS

## Cc1cc(C(C#N)c2ccc(Cl)cc2)c(Cl)cc1NC(=O)c1cc(I)cc(I)c1O (stereo not drawn)
HCT-116 colon
  GI50: 17.7 µM and 14.5 µM
  TGI: 31.5 µM and 27.6 µM
SK-MEL-2 melanoma
  GI50: 7.82 µM and 14.9 µM
  TGI: > 100 µM and 40 µM
SK-MEL-28 melanoma
  GI50: 5.42 µM and 14.8 µM
  TGI: 19.7 µM and 30.3 µM
HCT-15 colon
  GI50: 5.25 µM and 15.8 µM
  TGI: 19.8 µM and 31.7 µM
SK-MEL-5 melanoma
  GI50: 3.09 µM and 14.2 µM
  TGI: 11 µM and 27.3 µM
COLO 205 colon
  GI50: 15.2 µM and 16.2 µM
  TGI: 28.8 µM and 29.7 µM
MCF7 breast
  GI50: 6.58 µM and 15.7 µM
  TGI: 23.8 µM and 32.4 µM
CCRF-CEM leukemia
  GI50: 3.87 µM and 17.8 µM
  TGI: 17 µM and 47.1 µM
HS 578T breast
  GI50: 12 µM
  TGI: 34.4 µM
SNB-75 CNS
  GI50: 12.3 µM and 6.96 µM
  TGI: 41.5 µM and 25.6 µM
RPMI-8226 leukemia
  GI50: 3.15 µM and 11.1 µM
  TGI: 13 µM and 43.5 µM
RXF 393 renal
  GI50: 10.8 µM and 5.95 µM
  TGI: 23.7 µM and 19.4 µM
MDA-MB-231 breast
  GI50: 5.48 µM and 14.2 µM
  TGI: 23.9 µM and 37.9 µM
BT-549 breast
  GI50: 4.03 µM and 8.64 µM
  TGI: 11.8 µM and 23.4 µM
LOX IMVI melanoma
  GI50: 10.4 µM and 16.7 µM
  TGI: 26.1 µM and 35.5 µM
UACC-257 melanoma
  GI50: 14.4 µM and 15.1 µM
  TGI: 28.1 µM and 29.6 µM
PC-3 prostate
  GI50: 3.18 µM and 11.7 µM
  TGI: 23 µM and 32.5 µM
NCI-H460 lung
  GI50: 4.87 µM and 19.5 µM
  TGI: 28.5 µM and 46.3 µM
T-47D breast
  GI50: 19.1 µM and 15.2 µM
  TGI: 46.9 µM and 37 µM
HOP-92 NSCLC
  GI50: 1.47 µM
  TGI: 4.65 µM
SNB-19 CNS
  GI50: 5.97 µM and 10.4 µM
  TGI: 27.1 µM and 27.5 µM
EKVX NSCLC
  GI50: 6.71 µM and 13.2 µM
  TGI: 31.1 µM and 33.7 µM
HCC-2998 colon
  GI50: 4.08 µM and 10.8 µM
  TGI: 15.4 µM and 24 µM
KM12 colon
  GI50: 13.7 µM and 15.9 µM
  TGI: 29.8 µM and 30.5 µM
UO-31 renal
  GI50: 14.7 µM and 14.8 µM
  TGI: 31.4 µM and 35.1 µM
OVCAR-8 ovarian
  GI50: 6.02 µM and 21.4 µM
  TGI: > 100 µM and 52.1 µM
HOP-62 NSCLC
  GI50: 13.9 µM and 15.2 µM
  TGI: 34.4 µM and 32.4 µM
A498 renal
  GI50: 11.2 µM
  TGI: 29.9 µM
SF-539 CNS
  GI50: 8.18 µM and 13.2 µM
  TGI: 23.2 µM and 32.4 µM
